Laboratory results as given in PubChem BioAssay AID330 (DTP/NCI, 2004).
Inconclusive results and toxic doses are left out. How the source made its calls: active means survival T/C of 150% or more; inactive means T/C below 125% in these data. Square brackets hold non-standard residues; d marks the D form. Peptide text beside a SMILES is read from it. * marks the point of attachment. Cbz = O=C(OCc1ccccc1)*; Nva = CCC[CH](N)C(=O)O

Tested on: P388 leukemia ip, CD2F1 mice, survival T/C
Assay: NCI In Vivo Anticancer Drug Screen. Data for tumor model P388 Leukemia (intraperitoneal) in CD2F1 (CDF1) mice
Settings: endpoint: median survival time, higher = longer survival
Outline: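 Mice carrying the transplanted tumor received test compound or vehicle. Survival was recorded in each group, and the value is the treated-group measurement divided by that of the vehicle-treated control group.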

[1] = dose: 50.0 mg/kg/injection, schedule: Q01DX005 (ip), vehicle: Klucel (hydroxypropylcellulose) (HPC)
[2] = dose: 100.0 mg/kg/injection, schedule: Q01DX005 (ip), vehicle: Klucel (hydroxypropylcellulose) (HPC)
[3] = dose: 200.0 mg/kg/injection, schedule: Q01DX005 (ip), vehicle: Klucel (hydroxypropylcellulose) (HPC)
[4] = dose: 50.0 mg/kg/injection, schedule: Q01DX009 (ip), vehicle: saline with Tween-80
[5] = dose: 100.0 mg/kg/injection, schedule: Q01DX009 (ip), vehicle: saline with Tween-80
[6] = dose: 200.0 mg/kg/injection, schedule: Q01DX009 (ip), vehicle: saline with Tween-80
[7] = dose: 60.0 mg/kg/injection, schedule: Q01DX005 (ip), vehicle: saline with Tween-80
[8] = dose: 50.0 mg/kg/injection, schedule: Q01DX005 (ip), vehicle: saline with Tween-80
[9] = dose: 100.0 mg/kg/injection, schedule: Q01DX005 (ip), vehicle: saline with Tween-80
[10] = dose: 200.0 mg/kg/injection, schedule: Q01DX005 (ip), vehicle: saline with Tween-80
[11] = dose: 120.0 mg/kg/injection, schedule: Q01DX005 (ip), vehicle: saline with Tween-80
[12] = dose: 240.0 mg/kg/injection, schedule: Q01DX005 (ip), vehicle: saline with Tween-80
[13] = dose: 50.0 mg/kg/injection, schedule: Q01DX005 (ip), vehicle: saline
[14] = dose: 100.0 mg/kg/injection, schedule: Q01DX005 (ip), vehicle: saline
[15] = dose: 200.0 mg/kg/injection, schedule: Q01DX005 (ip), vehicle: saline
[16] = dose: 100.0 mg/kg/injection, schedule: Q04DX002 (ip), vehicle: saline with Tween-80
[17] = dose: 200.0 mg/kg/injection, schedule: Q04DX002 (ip), vehicle: saline with Tween-80
[18] = dose: 400.0 mg/kg/injection, schedule: Q04DX002 (ip), vehicle: saline with Tween-80

Measured: T/C

CCCC(NC(=O)OCc1ccccc1)C(=O)NC(C(=O)O)C(C)CC (stereo unspecified) (Cbz-[Nva]-Ile-OH; configuration not given here)
inactive: [1] 100 % of control | [2] 100 % of control | [3] 101 % of control

CC(=O)Nc1cc2c(=O)[nH]cnc2c([N+](=O)[O-])c1N(C)[N+](=O)[O-]
inactive: dose: 5.0 mg/kg/injection, schedule: Q01DX005 (ip), vehicle: other 101 % of control | dose: 10.0 mg/kg/injection, schedule: Q01DX005 (ip), vehicle: other 117 % of control | dose: 20.0 mg/kg/injection, schedule: Q01DX005 (ip), vehicle: other 109 % of control | dose: 40.0 mg/kg/injection, schedule: Q01DX005 (ip), vehicle: other 102 % of control

CC(C)(C)CC(C)(C)c1ccc(OCc2ccc(Cl)c(Cl)c2)cc1
inactive: [4] 100 % of control | [5] 100 % of control | [6] 91 % of control

Cc1cccc(Nc2ncnc3c2c(=O)n(C)c(=O)n3C)c1
inactive: dose: 15.0 mg/kg/injection, schedule: Q01DX005 (ip), vehicle: saline with Tween-80 91 % of control | dose: 30.0 mg/kg/injection, schedule: Q01DX005 (ip), vehicle: saline with Tween-80 94 % of control | [7] 86 % of control

c1ccc2c(c1)Cc1c(-c3ccncc3)n[nH]c1-2
inactive: dose: 25.0 mg/kg/injection, schedule: Q04DX003 (ip), vehicle: saline with Tween-80 100 % of control | dose: 50.0 mg/kg/injection, schedule: Q04DX003 (ip), vehicle: saline with Tween-80 98 % of control | dose: 100.0 mg/kg/injection, schedule: Q04DX003 (ip), vehicle: saline with Tween-80 94 % of control | dose: 200.0 mg/kg/injection, schedule: Q04DX003 (ip), vehicle: saline with Tween-80 94 % of control

CC(=O)NC1C(NC(=S)NCC(=O)c2ccc(C)cc2)OC(COC(C)=O)C(OC(C)=O)C1OC(C)=O (stereo unspecified)
inactive: [8] 94 % of control | [9] 94 % of control | [10] 91 % of control

CC1CC(C)/C(=N/NC(N)=O)C(C(O)CC2CCC(=O)NC2=O)C1 (stereo unspecified)
inactive: [8] 100 % of control | [9] 115 % of control | [10] 115 % of control

CC(C)c1ccc(OS(=O)(=O)C(F)(F)C(F)(F)C(F)(F)C(F)(F)F)cc1
inactive: [4] 99 % of control | [5] 105 % of control

CC1C2Cc3ccc(O)cc3C1(C)CCN2C (stereo unspecified)
inactive: [7] 92 % of control | [11] 100 % of control

COC(=O)C1=C(C(=O)OC)NC2=C(C=N1)CCC2
inactive: [7] 102 % of control | [11] 94 % of control | [12] 91 % of control

CC(=O)c1ccc(N=C(C#N)C2=C(O)c3ccccc3C2=O)cc1
inactive: [7] 115 % of control | [11] 120 % of control

C[S+](C)CCC[S+](C)C
inactive: dose: 50.0 mg/kg/injection, schedule: Q01DX009 (ip), vehicle: saline 105 % of control | dose: 100.0 mg/kg/injection, schedule: Q01DX009 (ip), vehicle: saline 99 % of control | dose: 200.0 mg/kg/injection, schedule: Q01DX009 (ip), vehicle: saline 105 % of control

Clc1ccc(C(c2ccc(Cl)cc2)C(Cl)(Cl)Cl)cc1
inactive: dose: 1.56 mg/kg/injection, schedule: Q01DX009 (ip), vehicle: saline with Tween-80 105 % of control | dose: 3.12 mg/kg/injection, schedule: Q01DX009 (ip), vehicle: saline with Tween-80 98 % of control | dose: 6.25 mg/kg/injection, schedule: Q01DX009 (ip), vehicle: saline with Tween-80 100 % of control | dose: 12.5 mg/kg/injection, schedule: Q01DX009 (ip), vehicle: saline with Tween-80 98 % of control | [4] 99 % of control

CNC(C)=O
inactive: [5] 95 % of control | dose: 100.0 mg/kg/injection, schedule: Q04DX003 (ip), vehicle: saline 90 % of control | [6] 95 % of control | dose: 200.0 mg/kg/injection, schedule: Q04DX003 (ip), vehicle: saline 95 % of control | dose: 400.0 mg/kg/injection, schedule: Q01DX009 (ip), vehicle: saline with Tween-80 95 % of control | dose: 400.0 mg/kg/injection, schedule: Q04DX003 (ip), vehicle: saline 100 % of control

CC(=Nc1c[nH]c(=O)[nH]c1=O)c1ccccc1
inactive: dose: 100.0 mg/kg/injection, schedule: Q04DX002 (ip), vehicle: suspension in saline 104 % of control | dose: 200.0 mg/kg/injection, schedule: Q04DX002 (ip), vehicle: suspension in saline 101 % of control | dose: 400.0 mg/kg/injection, schedule: Q04DX002 (ip), vehicle: suspension in saline 94 % of control

CCNC(=O)OCc1cnc(C)c(O)c1COC(=O)NCC
inactive: dose: 25.0 mg/kg/injection, schedule: Q01DX005 (ip), vehicle: saline with Tween-80 102 % of control | [8] 100 % of control | [9] 99 % of control

CN(C)c1ccc(N=Nc2ccc3c4c(cccc24)-c2ccccc2-3)cc1
inactive: [4] 104 % of control | [5] 96 % of control | [6] 115 % of control

O=C1C(N=Nc2ccc(S(=O)(=O)Nc3ccccn3)cc2)C(=O)N(c2ccc(Cl)cc2)C(=S)N1c1ccc(Cl)cc1
inactive: [13] 105 % of control | [14] 114 % of control | [15] 112 % of control

C=CCC(C(C)=O)C(=O)OC(C)(C)C (stereo unspecified)
inactive: [13] 101 % of control | [14] 104 % of control | [15] 111 % of control

CS(=O)CC1OC2OC3C(CO)OC(OC4C(CO)OC(OC5C(CO)OC(OC6C(CO)OC(OC7C(CO)OC(OC8C(CO)OC(OC1C(O)C2O)C(O)C8O)C(O)C7O)C(O)C6O)C(O)C5O)C(O)C4O)C(O)C3O (stereo unspecified)
inactive: dose: 60.0 mg/kg/injection, schedule: Q01DX005 (ip), vehicle: saline 100 % of control | dose: 120.0 mg/kg/injection, schedule: Q01DX005 (ip), vehicle: saline 106 % of control | dose: 240.0 mg/kg/injection, schedule: Q01DX005 (ip), vehicle: saline 104 % of control

CC(=O)NCc1cc([N+](=O)[O-])ccc1O
inactive: [8] 101 % of control | [9] 94 % of control | [10] 99 % of control

O=P(c1ccccc1)(c1ccccc1)c1ccccc1OCCOCCOc1ccccc1P(=O)(c1ccccc1)c1ccccc1
inactive: [1] 100 % of control | [2] 91 % of control | [3] 99 % of control

COc1cccc2c1C(=O)c1c(O)c3c(c(O)c1C2=O)C[C@@](O)(/C(C)=N\NC(N)=O)C[C@@H]3OC1CC(N)C(O)C(C)O1 (stereo partly specified)
inactive: dose: 1.56 mg/kg/injection, schedule: Q01DX009 (ip), vehicle: saline 95 % of control

CCC(=C(c1ccc(OCCN(C)C)cc1)c1cccc(O)c1)c1ccccc1 (mixture of isomers)
inactive: dose: 60.0 mg/kg/injection, schedule: Q01DX005 (ip), vehicle: Klucel (hydroxypropylcellulose) (HPC) 104 % of control | dose: 120.0 mg/kg/injection, schedule: Q01DX005 (ip), vehicle: Klucel (hydroxypropylcellulose) (HPC) 107 % of control

CCn1c(=O)c(Cl)c2n(CC)c3ccccc3n2c1=O
inactive: [7] 97 % of control | [11] 89 % of control | [12] 87 % of control

O=c1nc(-c2ccccc2)nc(-c2ccccc2)[nH]1
inactive: [16] 93 % of control | [17] 89 % of control | [18] 108 % of control

Oc1cccc(Nc2ccccc2)c1
inactive: dose: 50.0 mg/kg/injection, schedule: Q01DX009 (ip), vehicle: olive oil, sesame oil, peanut oil 108 % of control | dose: 100.0 mg/kg/injection, schedule: Q01DX009 (ip), vehicle: olive oil, sesame oil, peanut oil 103 % of control | dose: 200.0 mg/kg/injection, schedule: Q01DX009 (ip), vehicle: olive oil, sesame oil, peanut oil 111 % of control

CCOC(=O)C(C(=O)c1ccccc1)C(=O)C(C)(C)C (stereo unspecified)
inactive: [4] 100 % of control | [5] 91 % of control | [6] 95 % of control

O=C1C(Cl)=C(Nc2ccccc2)C(O)N1c1ccccc1 (stereo unspecified)
inactive: [8] 103 % of control | [9] 96 % of control | [10] 92 % of control

c1csc(-c2n[se]c(-c3cccs3)n2)c1
inactive: dose: 12.5 mg/kg/injection, schedule: Q04DX002 (ip), vehicle: saline with Tween-80 99 % of control | dose: 25.0 mg/kg/injection, schedule: Q04DX002 (ip), vehicle: saline with Tween-80 100 % of control

O=C(CC(=NCC(O)CN=C(CC(=O)c1ccccc1)c1ccccc1)c1ccccc1)c1ccccc1 (stereo unspecified)
inactive: [16] 98 % of control | [17] 98 % of control | [18] 91 % of control

CC(C)[N+](=C1O[B-](c2ccccc2)(c2ccccc2)O[B-]1(c1ccccc1)[C+]1CCCCC1)C(C)C (stereo unspecified)
inactive: [8] 102 % of control | [9] 108 % of control | [10] 116 % of control
